According to patent US7851467B2, “Carbamate compounds as 5-HT4 receptor agonists” (Theravance, Inc., priority 2005, dated 2010):

How the values were obtained:
[1] = Pharmacokinetic study in the rat; type: in vivo; settings: male Sprague-Dawley rats
Protocol: Assay 6: Pharmacokinetic Study in the Rat
Aqueous solution formulations of test compounds were prepared in 0.1% lactic acid at a pH of between about 5 and about 6. Male Sprague-Dawley rats (CD strain, Charles River Laboratories, Wilmington, Mass.) were dosed with test compounds via intravenous administration (IV) at a dose of 2.5 mg/kg or by oral gavage (PO) at a dose of 5 mg/kg. The dosing volume was 1 mL/kg for IV and 2 mL/kg for PO administration. Serial blood samples were collected from animals pre-dose, and at 2 (IV only), 5, 15, and 30 min, and at 1, 2, 4, 8, and 24 hours post-dose. Concentrations of test compounds in blood plasma were determined by liquid chromatography-mass spectrometry analysis (LC-MS/MS) (MDS SCIEX, API 4000, Applied Biosystems, Foster City, Calif.) with a lower limit of quantitation of 1 ng/mL.
Standard pharmacokinetic parameters were assessed by non-compartmental analysis (Model 201 for IV and Model 200 for PO) using WinNonlin (Version 4.0.1, Pharsight, Mountain View, Calif.). The maximum in the curve of test compound concentration in blood plasma vs. time is denoted Cmax. The area under the concentration vs. time curve from the time of dosing to the last measurable concentration (AUC(O-t)) was calculated by the linear trapezoidal rule. Oral bioavailability (F(%)), i.e. the dose-normalized ratio of AUC(O-t) for PO administration to AUC(O-t) for IV administration, can be calculated as: F(%)=AUCPO/AUCIV×DoseIV/DosePO×100%
The compounds of the invention that were tested in this assay had Cmax values between about 0.15 to about 0.35 μg/mL and AUC(0−t) values between about 0.5 to about 1.1 μg·hr/mL.

human 5-HT4(c) receptor = molecular target: T1, human 5-HT4(c) receptor (Homo sapiens, UniProt Q13639); assay: Whole-cell cAMP accumulation flashplate assay with HEK-293 cells expressing human 5-HT4(c) receptors; type: cell-based; settings: cell line (1) having a density of about 0.5-0.6 μmol/mg protein, read-out: pEC50 value (converted)
T1 construct: expressed in transfected cells; host or cells: HEK-293
Protocol: Assay 3: Whole-Cell cAMP Accumulation Flashplate Assay with HEK-293 Cells Expressing Human 5-HT4(c) Receptors
In this assay, the functional potency of a test compound was determined by measuring the amount of cyclic AMP produced when HEK-293 cells expressing 5-HT4 receptors were contacted with different concentrations of test compound.
HEK-293 (human embryonic kidney) cells stably-transfected with cloned human 5-HT4(c) receptor cDNA were prepared expressing the receptor at two different densities: (1) at a density of about 0.5-0.6 pmol/mg protein, as determined using a [^3H]-GR113808 membrane radioligand binding assay, and (2) at a density of about 6.0 pmol/mg protein. […]
Cells were grown to roughly 60-80% confluency. […] The cells were counted with a Coulter counter (count above 8 μm, flask yield was 1-2×10^7 cells/flask). […]
Cells were grown and prepared as described above. […] Bound radioactivity was quantified by scintillation proximity spectroscopy using the Topcount (Packard BioScience Co., Meriden, Conn.).
The amount of cAMP produced per mL of reaction was extrapolated from the cAMP standard curve, according to the instructions provided in the manufacturer's user manual. Data were analyzed by nonlinear regression analysis with the GraphPad Prism Software package using the 3-parameter sigmoidal dose-response model (slope constrained to unity). […]

[2] = blood plasma, dosing IV 2.5 mg/kg or PO 5 mg/kg

T1 sequence (Q13639 1-380 isoform Q13639-4): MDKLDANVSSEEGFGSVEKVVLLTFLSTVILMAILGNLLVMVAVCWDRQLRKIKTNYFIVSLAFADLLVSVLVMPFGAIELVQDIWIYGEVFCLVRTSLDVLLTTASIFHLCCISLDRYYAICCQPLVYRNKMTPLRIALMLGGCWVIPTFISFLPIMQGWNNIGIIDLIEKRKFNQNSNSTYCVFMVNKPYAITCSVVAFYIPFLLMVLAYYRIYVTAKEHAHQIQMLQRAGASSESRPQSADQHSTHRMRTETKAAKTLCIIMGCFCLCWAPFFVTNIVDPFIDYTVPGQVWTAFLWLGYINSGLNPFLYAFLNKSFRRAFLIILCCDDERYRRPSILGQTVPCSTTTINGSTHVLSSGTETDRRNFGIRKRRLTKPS

`CC(C)n1c(=O)n(C(=O)N[C@H]2C[C@H]3CC[C@@H](C2)N3CCCOC(=O)N2CCN(C(=O)C3CCCO3)CC2)c2ccccc21` (stereo partly drawn) [Example 1, 4-(tetrahydrofuran-2-carbonyl)piperazine-1-carboxylic acid 3-{(1S,3R,5R)-3-[(3-isopropyl-2-oxo-2,3-dihydrobenzoimidazole-1-carbonyl)amino]-8-aza-bicyclo[3.2.1]oct-8-yl}propyl ester] gave an AUC(0-t) [1, 2] of 970 ng·h/mL, a Cmax [1, 2] of 320 ng/mL and a bioavailability ([1]; plasma, PO 5 mg/kg vs IV 2.5 mg/kg, dose-normalized AUC ratio, read-out: oral bioavailability F(%)) of 55%. It also gave an EC50 (human 5-HT4(c) receptor) of 3.98 nM.
